This note sets out measurements from ChEMBL document CHEMBL1909294, “Translating clinical findings into knowledge in drug safety evaluation--drug induced liver injury prediction system (DILIps)” (PLoS Comput Biol, 2011).

The test system of data set [1] is Hepatotoxicity.
Data set [2] has as its system Hepatotoxicity. The source holds these as a separate data set.
The test system of data set [3] is Hepatotoxicity. This is another data set of the same source.
Data set [4] relates to Hepatotoxicity. The source holds these as a separate data set.
The subject of data set [5] is Hepatotoxicity. The source holds these as a separate data set.
The test system of data set [6] is Hepatotoxicity. The source holds these as a separate data set.
Data set [7] has as its system Hepatotoxicity. The source holds these as a separate data set.
The test system of data set [8] is Hepatotoxicity. This is another data set of the same source.
Data set [9] relates to Hepatotoxicity. The source holds these as a separate data set.
Data set [10] has as its system Hepatotoxicity. The source holds these as a separate data set.
Data set [11] has as its system Hepatotoxicity. This is another data set of the same source.
Data set [12] has as its system Hepatotoxicity. This is another data set of the same source.
Data set [13] relates to Hepatotoxicity. The source holds these as a separate data set.
Data set [14] concerns Hepatotoxicity. The source holds these as a separate data set.
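Throughout, for HepSE Combined Scores: combined hepatic side effect score as listed in the training data of the Drug Induced Liver Injury Prediction System (DILIps).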
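Throughout, for HepSE bilirubinemia: bilirubinemia hepatic side effect score drawn from the DILIps training data, a prediction system for drug-induced liver injury; call rule not given here.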
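Throughout, for HepSE cholecystitis: Cholecystitis-related hepatic side effect score drawn from the DILIps (drug-induced liver injury prediction) training data set; call rule not given here.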
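Throughout, for HepSE cholelithiasis: hepatic side effect score for cholelithiasis, drawn from the DILIps training data for predicting drug-induced liver injury; call rule not given here.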
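Throughout, for HepSE cirrhosis: cirrhosis hepatic side effect score taken from the DILIps (drug-induced liver injury prediction) training set; call rule not given here.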
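Throughout, for HepSE elevated liver function tests: hepatic side effect score for raised liver function tests, as recorded in the DILIps training set used for predicting drug-induced liver injury.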
Throughout, for HepSE hepatic failure: call rule not given here.
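Throughout, for HepSE hepatic necrosis: score of hepatic side effects for hepatic necrosis, drawn from the training data of DILIps, a prediction system for drug-induced liver injury; call rule not given here.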
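Throughout, for HepSE hepatitis: Hepatitis-related hepatic side effect score taken from the training data of DILIps, a prediction system for drug-induced liver injury; call rule not given here.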
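Throughout, for HepSE hepatomegaly: hepatic side effect score for hepatomegaly, taken from the training set of the DILIps drug-induced liver injury prediction system; call rule not given here.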
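Throughout, for HepSE jaundice: Jaundice-related hepatic side-effect score drawn from the training data of the DILIps (drug-induced liver injury prediction system); call rule not given here.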
Throughout, for HepSE liver disease: call rule not given here.
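Throughout, for HepSE liver fatty: hepatic side effect score for fatty liver, taken from the DILIps training set for predicting drug-induced liver injury; call rule not given here.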
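Throughout, for HepSE liver function tests abnormal: hepatic side effect score taken from the DILIps (drug-induced liver injury prediction system) training data, here covering abnormal liver function test findings.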

Compound `Nc1nc(O)c2ncn(COC(CO)CO)c2n1` [GANCICLOVIR] registered a HepSE_cholecystitis with Hepatotoxicity [1] of 0. In addition, the “HepSE_Combined Scores” value in the data set on Hepatotoxicity [2] is given as 4. Moreover, in the data set with Hepatotoxicity [3], the HepSE_jaundice turned out to be 1. Moreover, the “HepSE_liver function tests abnormal” value in the data set with Hepatotoxicity [4] was determined as 0. Also, the HepSE_cirrhosis in the data set on Hepatotoxicity [5] is listed as 0. The compound further registered a HepSE_liver disease with Hepatotoxicity [6] of 0. The compound further returned a HepSE_hepatic failure with Hepatotoxicity [7] of 1. The compound also displayed a HepSE_cholelithiasis with Hepatotoxicity [8] of 1. Also, in the data set on Hepatotoxicity [9], the HepSE_bilirubinemia worked out at 0. The same compound displayed a HepSE_hepatic necrosis with Hepatotoxicity [10] of 0. Moreover, the HepSE_liver fatty in the data set with Hepatotoxicity [11] was 0. In addition, the “HepSE_elevated liver function tests” value in the data set with Hepatotoxicity [12] worked out at 0. Besides, in the data set on Hepatotoxicity [13], the HepSE_hepatomegaly stood at 0. This compound registered a HepSE_hepatitis with Hepatotoxicity [14] of 1.

In the data set with Hepatotoxicity [1], `CO[C@H]1O[C@H](COS(=O)(=O)[O-])[C@@H](O[C@@H]2O[C@@H](C(=O)[O-])[C@@H](O[C@H]3O[C@H](COS(=O)(=O)[O-])[C@@H](O[C@@H]4O[C@H](C(=O)[O-])[C@@H](O[C@H]5O[C@H](COS(=O)(=O)[O-])[C@@H](O)[C@H](O)[C@H]5NS(=O)(=O)[O-])[C@H](O)[C@H]4O)[C@H](OS(=O)(=O)[O-])[C@H]3NS(=O)(=O)[O-])[C@H](O)[C@H]2OS(=O)(=O)[O-])[C@H](O)[C@H]1NS(=O)(=O)[O-].[Na+].[Na+].[Na+].[Na+].[Na+].[Na+].[Na+].[Na+].[Na+].[Na+]` [FONDAPARINUX SODIUM] showed a HepSE_cholecystitis of 0. Besides, the “HepSE_Combined Scores” value in the data set on Hepatotoxicity [2] was found to be 1. In the data set on Hepatotoxicity [3], this compound had a HepSE_jaundice of 0. Besides, in the data set with Hepatotoxicity [4], the “HepSE_liver function tests abnormal” value is 0. The HepSE_cirrhosis in the data set on Hepatotoxicity [5] is reported as 0. In the data set on Hepatotoxicity [6], this compound had a HepSE_liver disease of 1. Further, the HepSE_hepatic failure in the data set on Hepatotoxicity [7] is 0. The HepSE_cholelithiasis in the data set with Hepatotoxicity [8] is 0. This compound also had a HepSE_bilirubinemia in the data set with Hepatotoxicity [9] of 0. Also, in the data set with Hepatotoxicity [10], the HepSE_hepatic necrosis came to 0. The compound also gave a HepSE_liver fatty with Hepatotoxicity [11] of 0. Also, the “HepSE_elevated liver function tests” value in the data set on Hepatotoxicity [12] is 0. In the data set on Hepatotoxicity [13], this compound yielded a HepSE_hepatomegaly of 0. This compound also displayed a HepSE_hepatitis with Hepatotoxicity [14] of 0.

`O=S(=O)([O-])CCS.[Na+]` [MESNA]: in the data set on Hepatotoxicity [1], the HepSE_cholecystitis is given as 0. Besides, the “HepSE_Combined Scores” value with Hepatotoxicity [2] is reported as 0. This compound had a HepSE_jaundice with Hepatotoxicity [3] of 0. Moreover, in the data set on Hepatotoxicity [4], the “HepSE_liver function tests abnormal” value is reported as 0. In the data set with Hepatotoxicity [5], this compound registered a HepSE_cirrhosis of 0. The same compound registered a HepSE_liver disease in the data set with Hepatotoxicity [6] of 0. In addition, the HepSE_hepatic failure in the data set on Hepatotoxicity [7] is recorded as 0. The same compound registered a HepSE_cholelithiasis in the data set on Hepatotoxicity [8] of 0. In addition, in the data set on Hepatotoxicity [9], the HepSE_bilirubinemia is given as 0. The HepSE_hepatic necrosis with Hepatotoxicity [10] is given as 0. Besides, the HepSE_liver fatty in the data set on Hepatotoxicity [11] is on record as 0. For the same compound, the “HepSE_elevated liver function tests” value in the data set with Hepatotoxicity [12] was found to be 0. In addition, the HepSE_hepatomegaly in the data set on Hepatotoxicity [13] is on record as 0. The HepSE_hepatitis with Hepatotoxicity [14] worked out at 0.

In turn, `C[N+](C)(C)CCOC(=O)CCC(=O)OCC[N+](C)(C)C` [SUXAMETHONIUM] registered a HepSE_cholecystitis with Hepatotoxicity [1] of 0. Moreover, the “HepSE_Combined Scores” value in the data set with Hepatotoxicity [2] turned out to be 0. Besides, in the data set on Hepatotoxicity [3], the HepSE_jaundice is 0. Further, the “HepSE_liver function tests abnormal” value in the data set on Hepatotoxicity [4] worked out at 0. This compound gave a HepSE_cirrhosis with Hepatotoxicity [5] of 0. The compound also registered a HepSE_liver disease with Hepatotoxicity [6] of 0. The HepSE_hepatic failure with Hepatotoxicity [7] was 0. In the data set with Hepatotoxicity [8], this compound returned a HepSE_cholelithiasis of 0. Moreover, the HepSE_bilirubinemia in the data set with Hepatotoxicity [9] was determined as 0. In addition, the HepSE_hepatic necrosis with Hepatotoxicity [10] is reported as 0. The HepSE_liver fatty with Hepatotoxicity [11] is on record as 0. In addition, the “HepSE_elevated liver function tests” value in the data set on Hepatotoxicity [12] is listed as 0. The HepSE_hepatomegaly in the data set on Hepatotoxicity [13] is 0. The same compound came in with a HepSE_hepatitis with Hepatotoxicity [14] of 0.

`Cc1cnc(NC(=O)C2=C(O)c3ccccc3S(=O)(=O)N2C)s1` [MELOXICAM] had a HepSE_cholecystitis in the data set with Hepatotoxicity [1] of 0. For the same compound, the “HepSE_Combined Scores” value in the data set with Hepatotoxicity [2] is recorded as 4. Besides, the HepSE_jaundice with Hepatotoxicity [3] came out at 1. Besides, the “HepSE_liver function tests abnormal” value in the data set with Hepatotoxicity [4] is 0. Besides, the HepSE_cirrhosis in the data set on Hepatotoxicity [5] was 0. Also, the HepSE_liver disease with Hepatotoxicity [6] came to 0. The HepSE_hepatic failure in the data set on Hepatotoxicity [7] came out at 1. In addition, the HepSE_cholelithiasis in the data set on Hepatotoxicity [8] amounted to 0. Further, the HepSE_bilirubinemia with Hepatotoxicity [9] is 1. In the data set on Hepatotoxicity [10], this compound registered a HepSE_hepatic necrosis of 0. Besides, the HepSE_liver fatty in the data set on Hepatotoxicity [11] was determined as 0. In the data set on Hepatotoxicity [12], the “HepSE_elevated liver function tests” value was 0. In addition, the HepSE_hepatomegaly with Hepatotoxicity [13] is listed as 0. Besides, the HepSE_hepatitis with Hepatotoxicity [14] turned out to be 1.
